Assay results published in patent publication US20240287549A1, “METHODS AND COMPOSITIONS FOR EFFICIENT PRODUCTION OF BIOFUELS AND BIOPLASTICS FROM TOXIC FEEDSTOCKS” (Massachusetts Institute of Technology, priority 2021, published 2024).

Tests used:
yeast [1] = settings: previously established (ref. 16); cited from earlier work
[2] = tested on: prototrophic wildtype (WT) strain FY4/5; assay: Constituent toxicity: ethanol titer of high-gravity fermentation in YSC with single inhibitors; type: cell-based, Saccharomyces cerevisiae; settings: for effect of KCl alone on ethanol titer: plus 50 mM KCl only; for additional boost of ethanol production by K+/pH adjustment: 50 mM KCl and NH4OH to pH 6 vs unadjusted
Experimental: To systematically characterize the impact of these constituent toxicities, ethanol production was assessed in yeast synthetic complete medium (YSC) with the 3 inhibitors added individually at equimolar concentration. As a completely chemically-defined formulation with trace vitamins, minerals, and amino acids, YSC lacks the undefined extracts contained in “rich” media that could supply unknown components to boost or hinder tolerance. […] For the constituent toxicity studies, prototrophic strain FY4/5 was expanded in a starter culture of YSC containing 150 g/L glucose and grown overnight to approximately OD600=10. To mimic industrial high cell density conditions, 100 OD600 units of cells per fermentation were harvested, washed with an equal volume of room temperature distilled and deionized water, and cell pellets resuspended in 4 mL media for a production cell density of approximately OD600=25 (9.9 g DCW/L). Fermentation media consisted of 250 g/L glucose in YSC and were supplemented with (left to right in FIG. 1A) 6 mM NH4Cl, 50/6 mM KCl/NH4OH, 100/128 mM acetic acid/NH4Cl, 100/50/128 mM acetic acid/KCl/NH4Cl, 100/50/128 mM acetic acid/KCl/NH4OH, 100/11 mM furfural/NHCl, 100/50/11 mM furfural/KCl/NH4OH, 100/7 mM 2-furanmethanol (FF—OH)/NHCl, 100/50/7 mM FF—OH/KCl/NH4Cl, 100/50/7 mM FF—OH/KCl/NHOH, 100/7 mM 5-hydroxymethyl-furfural (HMF)/NH4Cl, 100/50/7 mM HMF/KCl/NHOH, 100/7 mM furan-2,5-dimethanol (HMF-OH)/NH4Cl, 100/50/7 mM HMF-OH/KCl/NH4Cl, or 100/50/7 mM HMF-OH/KCl/NH4OH.
Inhibitor supplementation for the additionally screened conditions in FIGS. 2A-2C were: 50/60 mM acetic acid/NHCl, 50/50/60 mM acetic acid/KCl/NH4OH, 150/180 mM acetic acid/NH4Cl, 150/50/180 mM acetic acid/KCl/NH4OH, 50/9 mM furfural/NH4Cl, 50/50/9 mM furfural/KCl/NH4OH, 50/6 mM FF—OH/NHCl, 50/50/6 mM FF—OH/KCl/NH4OH, 150/15 mM furfural/NH4Cl. 150/50/15 mM furfural/KCl/NH4OH, 150/9 mM FF—OH/NH4Cl, 150/50/9 mM FF—OH/KCl/NH4OH, 50/6 mM HMF/NHCl, 50/50/6 mM HMF/KCl/NH4OH, 50/6 mM HMF-OH/NH4Cl, 50/50/6 mM HMF-OH/KCl/NH4OH, 150/11 mM HMF/NH4Cl, 150/50/11 mM HMF/KCl/NH4OH, 150/9 mM HMF-OH/NHCl, or 150/50/9 mM HMF-OH/KCl/NH4OH. The “/” notation is used for visual abbreviation but indicates the addition of all components during preparation. […] Furfural (Sigma-Aldrich #185914), HMF (Sigma-Aldrich #H40807), FF—OH (Sigma-Aldrich #W249106), and HMF-OH (Santa Cruz Biotechnology #sc-210242, scbt.com) were added directly to media in their supplier, concentrated forms to minimize the addition of volume. […] Fermentation samples of 550 μL were harvested after 48 h, cells removed by centrifugation (16,870×g, 2 min), and supernatants 0.45 μm syringe-filtered (Fisher Scientific #50-109-8735, fishersci.com) into glass HPLC vials and stored at 4° C. until analysis. Similarly, pre-inoculation fermentation media were syringe-filtered and diluted 1:5 in water for HPLC verification of starting glucose and inhibitor concentrations.
Analytes were separated isocratically in 5 mM sulfuric acid at 65° C. using a flow rate of […]. Under these conditions, retention times were approximately as follows: glucose 9.2 min, xylose 9.9 min, lactic acid 13.1 min, glycerol 13.8 min, acetic acid 15.3 min, ethanol 22.3 min, HMF 30.2 min, and furfural 45.0 min.

[3] = tested on: medium toxified to 40/28/55 mM furfural/HMF/acetic acid; settings: Saccharomyces cerevisiae, pH 6
yeast [4] = settings: prior experience
[5] = 100 mM of the substance in YSC, 250 g/L glucose, 48 h, 30 °C, no K+/pH adjustment
[6] = 100 mM of the substance, plus 50 mM KCl and NH4OH to pH 6

SMILES | ethanol titer [2, 5] | ethanol titer [2, 6] | effect of KCl alone on ethanol titer ([2]; 100 mM of the substance) | other results
[Ca+2] [Ca^2+] | – | – | – | effect on fermentation (yeast [1]): fermentation-neutral
OCc1ccco1 [FF—OH, 2-furanmethanol] | 35 ± 0.4 g/L | 59 ± 0.5 g/L | improvements intermediate to those with K+/pH together | additional boost of ethanol production by K+/pH adjustment ([2]; 100 mM): 69%; tolerated more than furfural at equimolar concentration (ethanol output) ([2]; 100 mM, FF-OH vs FF, no K+/pH adjustment): 9 ×
O=Cc1ccc(CO)o1 [HMF, 5-hydroxymethyl-furfural] | 34 ± 0.3 g/L | – | – | concentration tolerable by yeast for growth to commence [3]: approximately 1.5 g/L
OCc1ccc(CO)o1 [HMF-OH, furan-2,5-dimethanol] | – | 69 ± 0.6 g/L | improvements intermediate to those with K+/pH together | additional boost of ethanol production by K+/pH adjustment ([2]; 100 mM): 39%; higher ethanol titer than cognate aldehyde ([2]; 100 mM, HMF-OH vs HMF, no K+/pH adjustment): 45%
[K+] [K^+] | – | – | – | concentration up to which effects are fermentation-beneficial (yeast [1]): at least 110 mM
Cl.N [NH4Cl] | – | – | – | concentration tolerated with no detectable changes on ethanol titer (yeast [4]): at least 200 mM
CC(=O)O [acetic acid] | 17 ± 0.1 g/L | 109 ± 0.6 g/L | no amelioration | –
O=Cc1ccco1 [furfural] | 4 ± 0.3 g/L | – | – | –
